Measured values reported in paper PMC4827351 (Chemical Science, 2015).

What was measured:
E. coli Nissle = assay: SEM analysis of bacterial agglutination; type: cell-based, Escherichia coli; conditions: 3 µM proHD6 treated with trypsin before incubation (trypsin inactivated with APMSF), 30 min, 50 mM Tris-maleate pH 6.4
Protocol: Bacteria were grown aerobically at 37 °C overnight in LB media. The next morning the strains were subcultured and grown to mid-logarithmic phase in LB media. An aliquot of the bacteria (0.5–2 × 10^7 CFU mL^–1) was removed, sedimented by centrifugation (7000g × 2 min, 4 °C), washed twice with 50 mM Tris-maleate buffer, pH 6.4, and then resuspended in 0.5 mL of the 50 mM Tris-maleate buffer. The bacterial suspension was incubated at room temperature for 30 min with buffer control, 0.4 μM APMSF-inactivated trypsin, 3 μM proHD6, 3 μM trypsin-cleaved proHD6, or 3 μM HD6. Trypsin-cleaved proHD6 was prepared by incubating 30 μM proHD6 with 4 μM trypsin (Affimetrix, Santa Clara, CA) for 1 h at room temperature in 50 mM Tris-maleate buffer, pH 6.4. At the end of incubation, the trypsin was inactivated by addition of APMSF (p-amidinophenylmethylsulfonylfluoride HCl, Millipore, 25 μg mL^–1), and the mixture was added to the bacterial suspension. The APMSF-inactivated trypsin was similarly prepared, except that proHD6 was omitted from the preincubation. After a 30 min incubation, the treated bacterial suspensions were sedimented by centrifugation (7000g × 5 min, 4 °C), and the buffer supernatant was carefully removed. […]

[1] = system: L. monocytogenes ATCC 19115 invasion of human T84 colon epithelial cells; assay: Listeria invasion assay; type: cell-based, Listeria monocytogenes; conditions: proHD6 ≤10 µM, no trypsin, bacteria pre-incubated with peptide 30 min at room temperature, n = 3
Protocol: Fig. 5 Listeria invasion assays for native and cleaved proHD6. Invasion of human T84 colon epithelial cells by L. monocytogenes ATCC 19115 pre-treated with proHD6 in the absence and presence of 0.4 μM trypsin or HD6 (control). The bacteria (2 × 10^6 CFU mL^–1) were incubated with the indicated peptides for 30 min prior to the infection of the T84 cells (mean ± SDM, n = 3).
Concentrated (20×, 10 μL) solutions of HD6 and proHD6 were prepared in sterile Milli-Q water (0, 50, 100, and 200 μM). For conditions that required trypsin, a 1 mg mL^–1 stock solution of TPCK-treated trypsin (Worthington) in sterile Milli-Q water was added to the 20× proHD6 solutions to yield a final trypsin concentration of 0.01 mg mL^–1. A 190 μL aliquot of the diluted bacterial culture was added to each […] peptide solution and the resulting mixtures were incubated at room temperature for 30 min. The invasion assays were then performed by following a literature protocol.[15],[50] All invasion assays were conducted with at least two independently prepared and purified samples of each peptide and in three independent trials and the resulting averages with standard deviations are reported.

[2] = Sedimentation equilibrium analytical ultracentrifugation; type: physicochemical; conditions: 10 mM sodium phosphate; for MW (sedimentation equilibrium, SEDPHAT): pH 7.4, 20 °C, global fit
Protocol: Sedimentation equilibrium (SE) experiments were performed to determine the molecular weight of proHD6. The proHD6 samples were prepared as described in the SV experiments with modification. In a typical set of experiments, proHD6 solutions in Milli-Q water (≈100 μL) prepared in microcentrifuge tubes were lyophilized to dryness. An aliquot (110 μL, pre-filtered, 0.22 μm filter) of 10 mM sodium phosphate buffer adjusted to pH 7.4 was added to each tube to afford solutions with varying concentrations of proHD6 (30, 60, and 120 μM) and transferred to AUC sample cells. The pH of each solution was measured to confirm that each solution remained at pH 7.4. Based on the sedimentation coefficients obtained from the SV experiments, equilibrium profiles were obtained at rotor speeds of 30 000, 36 000, and 42 000 rpm. Once equilibrium was established, two scans with five replicates were recorded. The absorption wavelength for optical detection was 280 nm, and the instrument was maintained at 20 °C.
The details of the experimental setup and data analysis are reported elsewhere.[52] SEDNTERP[53] was employed to calculate the buffer viscosity (η), buffer density (ρ), and the partial specific volume (value of proHD6 at 20 °C) as described in the SV section. The molecular weight of proHD6 was determined by global fitting of the multispeed equilibrium data across all loading concentrations at pH 7.4 using SEDPHAT.[31] The Species Analysis model with mass conservation was employed for data analysis. The bottom of the sample sector was assigned as a floating parameter. To further evaluate whether each least-squares curve-fitting procedure converged to a global minimum, the alternate methods of Simplex, Marquardt–Levenberg, and simulated annealing were employed to assess any change in the global reduced chi-squared value.
Table S5. Molecular weight fitting of SE data for proHD6 by using SEDPHAT.a 95% Confidence Standard Global Reduced Critical Chi-Squared
Sample MW (Da) Intervalb Deviationb Chi-Squared Valuec […]
a All samples were in 10 mM sodium phosphate, pH 7.4. Global fitting used partial specific volume (v) at 20 °C, a solvent density ( ρ) of 0.99967 g/mL, and a solvent viscosity (η) of 1.0061 cP. Viscosity units are in centipoise (cP) (1 poise = 1 gŸ[…] cm-1Ÿ[…]s-1). b Calculated from 1000 iterations of Monte-Carlo analysis. c Calculated at a 95% confidence level.

With “EPLQAEDDPLQAKAYEADAQEQRGANDQDFAVSFAEDASSSLRALGSTRAFTCHCRRSCYSTEYSYGTCTVMGINHRFCCL (disulfide (positions not given here)) [proHD6, 81-residue propeptide of human α-defensin 6, recombinant, from His6-SUMO-proHD6]” the “bacterial agglutination (SEM), trypsin-cleaved” value (E. coli Nissle) was “entangled and agglutinated E. coli”, the “L. monocytogenes invasion into human intestinal epithelial cells” value [1] was “did not impair” and the “molecular weight in solution (sedimentation equilibrium, global analysis)” value ([2]; pH 7.4, 20 °C, 30, 60, 120 µM proHD6, 30 000/36 000/42 000 rpm, A280, SEDPHAT, SD ±230 Da, 95% interval 15 059-15 946 Da) was 15 549 Da. For the same sequence, the “MW (sedimentation equilibrium, SEDPHAT)” value ([2]; Sample 1) was 15176 Da, the “MW (sedimentation equilibrium, SEDPHAT)” value ([2]; Sample 2) was 15351 Da and the “MW (sedimentation equilibrium, SEDPHAT)” value ([2]; Sample 3) was 15549 Da.
